Experiments:
Plasmodium falciparum [1] = test: (§1) Growth inhibition of Plasmodium falciparum ring stage in infected erythrocytes by DAPI growth assay; type: functional, organism-based
Plasmodium falciparum [2] = test: as §1; type: functional, organism-based; remark: listed apart in the source
Plasmodium falciparum [3] = test: Growth inhibition of Plasmodium falciparum as reduced [3H]hypoxanthine incorporation; type: functional, organism-based
Plasmodium falciparum [4] = test: microbe, parasite or virus in culture; conditions: HB3, 72 h
Description: Growth inhibition of Plasmodium falciparum HB3 ring stage in infected erythrocytes after 72 hrs in DAPI fluorimetry

Plasmodium falciparum [5] = test: microbe, parasite or virus in culture; conditions: 3D7, 72 h
Description: Growth inhibition of Plasmodium falciparum 3D7 ring stage in infected erythrocytes after 72 hrs in DAPI fluorimetry

Plasmodium falciparum [6] = test: microbe, parasite or virus in culture; conditions: Dd2, 72 h
Description: Growth inhibition of Plasmodium falciparum Dd2 ring stage infected erythrocytes after 72 hrs by DAPI fluorimetry

`O=C1C(O)=C([C@H]2CC[C@H](c3ccc(Cl)cc3)CC2)C(=O)c2ccccc21` [ATOVAQUONE] gave an IC50 (Plasmodium falciparum [1]) of 0.66 nM, an IC50 (Plasmodium falciparum [2]) of 0.63 nM and an IC50 (Plasmodium falciparum [3]) of 0.61 nM.

Compound `CCc1nc(N)nc(N)c1-c1ccc(Cl)cc1` [PYRIMETHAMINE] has an IC50 (Plasmodium falciparum [4]) of 49.9 nM, an IC50 (Plasmodium falciparum [5]) of 10 nM and an IC50 (Plasmodium falciparum [6]) of 44.1 nM.

`C[C@@H]1CC[C@H]2[C@@H](C)C(=O)O[C@@H]3O[C@@]4(C)CC[C@@H]1[C@]32OO4` [ARTEMISININ] showed an IC50 (Plasmodium falciparum [1]) of 10.8 nM, an IC50 (Plasmodium falciparum [4]) of 9.7 nM and an IC50 (Plasmodium falciparum [5]) of 10.8 nM. The IC50 (Plasmodium falciparum [2]) was 9.67 nM, the IC50 (Plasmodium falciparum [3]) was 10.1 nM and the IC50 (Plasmodium falciparum [6]) was 12.3 nM.

Work on `OC(c1cc(C(F)(F)F)nc2c(C(F)(F)F)cccc12)C1CCCCN1` (stereo not drawn) [MEFLOQUINE] yielded an IC50 (Plasmodium falciparum [4]) of 9.63 nM, an IC50 (Plasmodium falciparum [5]) of 12.3 nM and an IC50 (Plasmodium falciparum [6]) of 26 nM.

`C=C[C@H]1CN2CC[C@H]1C[C@H]2[C@H](O)c1ccnc2ccc(OC)cc12` [QUININE] gave an IC50 (Plasmodium falciparum [1]) of 66.5 nM, an IC50 (Plasmodium falciparum [2]) of 69.2 nM and an IC50 (Plasmodium falciparum [3]) of 62.8 nM.
